{"source": "patent US20240251801A1", "about": "“COMPOSITIONS AND METHODS FOR IMPROVING PLANT HEALTH AND CONTROLLING PLANT DISEASE” (AgBiome, Inc., priority 2021, published 2024)", "key": {"Phakopsora pachyrhizi [1]": {"system": "Phakopsora pachyrhizi", "assay": "Soybean leaf disk assay, control of Asian soybean rust", "format": "in vivo", "conditions": "soybean leaf disks, strain 1×10^8 CFU/mL, azoxystrobin 0.5 ppm", "method": "For detached-leaf assays performed in the following examples, bacterial strains stored in a freezer (−80° C.) were each streaked onto Luria Bertani (LB) agar (25 g LB broth and 15 g agar per liter of deionized water) in an 8.5-cm diameter plastic plate. A single colony from the plate was picked and placed in 50 ml of either LB liquid broth or a liquid broth consisting of NaCl (5 g), tryptone (10 g), nutrient broth (8 g), CaCl2 (0.14 mM), MgCl2·6H2O (0.2 mM), and MnCl2·4H2O (0.01 mM) per liter of deionized water in a 250-ml flask. Calcium chloride (CaCl2), MgCl2, and MnCl2 were filtered sterilized using 0.22 μm vacuum filter and were then added to NaCl, tryptone, nutrient broth (which were autoclaved together). Cultures were harvested after 48 h by pelleting cells and re-suspending to original volume in sterile H2O. Colony forming units (CFU/mL) were determined using standard dilution plate count method, and plates were inspected for signs of contamination. Sterile distilled water was added to achieve a final concentration needed in detached-leaf or growth chamber strain evaluations.\nThe susceptible soybean cultivar Williams 82 was used in strain evaluation using the detached-leaf technique (Twizeyimana and Hartman, 2010). […]\nData recorded were numbers of uredinia in 1-cm diameter circle recorded 14 days after inoculation. […]"}, "Phakopsora pachyrhizi [2]": {"system": "Phakopsora pachyrhizi", "assay": "Soybean leaf disc assay with wettable powder formulations, control of Asian soybean rust", "format": "in vivo", "conditions": "soybean leaf discs, 150 μL, azoxystrobin 0.25 ppm as control", "method": "For the tray drying method, 829 grams of cell paste obtained from a liquid culture of ATP15329 was mixed with 18.24 g of glycerol and 72.95 g of microcel E using a food processor. Half of the cell paste was dried at 40° C. to a water activity of less than 0.30, at which time it contained 3.53E11 CFU/g. The other half was dried at 25° C. and 50% RH to a water activity of less than 0.6, at which time it contained 4.75E11 CFU/g. The dried powder formulation was stored in heat sealed mylar pouches at 4° C.\nFor the spray drying method, 200 grams of cell paste obtained from a liquid culture of ATP15329 was mixed with 22 g of skim milk powder using an emulsion blender. This material was spray dried at outlet temperature of 70° C., at which time it contained 7.86E10 CFU/g. The dried powder formulation was stored in heat sealed mylar pouches at 4° C.\nThis evaluation followed the protocol used in Example 5. Briefly, leaf disks were each sprayed with 150 μL of different formulations of the bacterial strain AIP015329, azoxystrobin (0.25 ppm) (fungicide control) on the abaxial surface with 150 μl using a fingertip sprayer (Container & Packaging Supply, Eagle, ID) fitted to a 15 mL conical centrifuge tube. Leaf disks were placed adaxial side down on saturated 20×20 cm filter paper in a plastic container (Blister Box 20×20 cm, Placon, Madison, WI); two filter papers were used per box. Boxes with leaf disks were incubated at room temperature in the dark, 24 hours later, leaf disks in the box were inoculated as described earlier. Inoculated and non-inoculated/not treated controls were added. After inoculation, boxes were maintained and incubated as described in the first-round evaluations.\nData recorded were numbers of uredinia in 1-cm diameter circle recorded 14 days after inoculation. […] Data were analyzed using analysis of variance (ANOVA) in PROC GLM of SAS (version 9.4; SAS Institute Inc., Cary, NC) and significant differences (P<0.05) were observed among treatments (Table 9)."}}, "data": [{"smiles": "CO/C=C(/C(=O)OC)c1ccccc1Oc1cc(Oc2ccccc2C#N)ncn1", "note": "[Azoxystrobin, azoxystrobin]", "values": [{"measurement": "Disease Control (%) Confirmation", "setting": "Phakopsora pachyrhizi [1]; confirmation", "result": "95.7 (a) %"}, {"measurement": "Disease Control (%) Primary Screen", "setting": "Phakopsora pachyrhizi [1]; uredinia counted 14 days after inoculation", "result": "99.8 (a) %"}, {"measurement": "Disease Control (%) Spray dry", "setting": "Phakopsora pachyrhizi [2]; spray dried formulation of the strain, 14 days after inoculation", "result": "100 (a) %"}, {"measurement": "Disease Control (%) Tray dry Dried at 25° C.", "setting": "Phakopsora pachyrhizi [2]; tray dried formulation dried at 25° C.", "result": "100 (a) %"}, {"measurement": "Disease Control (%) Tray dry Dried at 40° C.", "setting": "Phakopsora pachyrhizi [2]; tray dried formulation dried at 40° C.", "result": "100 (a) %"}]}]}
